Tested on: human maximum recommended daily dose, FDA database
Assay: DSSTox (FDAMDD) FDA Maximum (Recommended) Daily Dose Database
Conditions: hits give low values
Procedure, shortened: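 MRDD values come from clinical trials with daily oral dosing, usually for 3–12 months, for the average adult, in mg/day converted to mg/kg-bw/day assuming 60 kg. Antineoplastic mg/m2 doses are divided by 37. Activity score maps log10(1/MRDD mmol) onto 1–100.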

[1] = TherapeuticCategory: antibacterial
[2] = TherapeuticCategory: glucocorticoid
[3] = TherapeuticCategory: antiemetic
[4] = TherapeuticCategory: skeletal muscle relaxant
[5] = TherapeuticCategory: antineoplastic

With CN[C@@H]1[C@@H](O)[C@@H](O[C@@H]2[C@@H](O)[C@H](O[C@H]3O[C@H](CN)CC[C@H]3N)[C@@H](N)C[C@H]2N)OC[C@]1(C)O the maximum recommended daily dose (mmol/kg-bw/day) [1] was 0.00667.
With Nc1ccn([C@@H]2O[C@H](CO)[C@@H](O)C2O)c(=O)n1 (some centres undefined) the maximum recommended daily dose (mmol/kg-bw/day) (TherapeuticCategory: antineoplastic, antiviral) was 0.0111.
In the case of COc1ccc2c(c1)N(C[C@H](C)CN(C)C)c1ccccc1S2, the maximum recommended daily dose (mmol/kg-bw/day) (TherapeuticCategory: analgesic) is reported as 0.0101.
Compound CN(C)[C@@H]1C(=O)C(C(N)=O)=C(O)[C@@]2(O)C(=O)C3=C(O)c4c(O)cccc4[C@@](C)(O)[C@H]3[C@H](O)[C@@H]12 has a maximum recommended daily dose (mmol/kg-bw/day) [1] of 0.0671.
For CCCC(=O)O[C@]1(C(=O)COC(=O)CC)[C@@H](C)C[C@H]2[C@@H]3CCC4=CC(=O)C=C[C@]4(C)[C@@]3(F)[C@@H](O)C[C@@]21C, the maximum recommended daily dose (mmol/kg-bw/day) [2] was 0.000289.
COc1cc(N)c(Cl)cc1C(=O)NC1CCN(Cc2ccccc2)CC1 was tested, and the maximum recommended daily dose (mmol/kg-bw/day) (TherapeuticCategory: antiemetic, antispasmodic) was 6.69e-05.
NC(=O)C1CCN(CCCN2c3ccccc3Sc3ccc(Cl)cc32)CC1 showed a maximum recommended daily dose (mmol/kg-bw/day) [3] of 0.000622.
Compound O=c1oc2ccccc2c(O)c1Cc1c(O)c2ccccc2oc1=O has a maximum recommended daily dose (mmol/kg-bw/day) (TherapeuticCategory: anticoagulant) of 0.0149.
CC/C(=C(/CC)c1ccc(O)cc1)c1ccc(O)cc1 was tested, and the maximum recommended daily dose (mmol/kg-bw/day) (TherapeuticCategory: estrogen) was 0.0373.
Work on CCCCC(=O)O[C@H]1CC[C@H]2[C@@H]3CCc4cc(O)ccc4[C@H]3CC[C@]12C yielded a maximum recommended daily dose (mmol/kg-bw/day) (TherapeuticCategory: estrogen) of 0.0014.
In the case of CN(C)CCC(O)(c1ccccc1)c1ccccc1Cl (centres undefined), the maximum recommended daily dose (mmol/kg-bw/day) (TherapeuticCategory: antitussive) is reported as 0.00576.
For CN1[C@@H]2CC(OC(=O)[C@H](CO)c3ccccc3)C[C@H]1[C@@H]1O[C@@H]12 (some centres undefined), the maximum recommended daily dose (mmol/kg-bw/day) (TherapeuticCategory: anticholinergic) was 1.09e-06.
Work on Oc1c(I)cc(Cl)c2cccnc12 yielded a maximum recommended daily dose (mmol/kg-bw/day) (TherapeuticCategory: topical anti infective, antiamebic) of 0.0818.
Work on Cc1nnc(NS(=O)(=O)c2ccc(N)cc2)s1 yielded a maximum recommended daily dose (mmol/kg-bw/day) [1] of 0.247.
Clc1ccc2nsnc2c1NC1=NCCN1 showed a maximum recommended daily dose (mmol/kg-bw/day) [4] of 0.00236.
Work on CCOc1ccc(NC(C)=O)cc1 yielded a maximum recommended daily dose (mmol/kg-bw/day) (TherapeuticCategory: anticonvulsant, analgesic, antipyretic) of 0.279.
In the case of NC(=O)c1cc[n+](CC2=C(C(=O)[O-])N3C(=O)[C@@H](NC(=O)C(c4ccccc4)S(=O)(=O)O)[C@H]3SC2)cc1 (some centres undefined), the maximum recommended daily dose (mmol/kg-bw/day) [1] is reported as 0.188.
In the case of CC1=C(C/C=C(\C)CCC[C@H](C)CCC[C@H](C)CCCC(C)C)C(=O)c2ccccc2C1=O, the maximum recommended daily dose (mmol/kg-bw/day) (TherapeuticCategory: prothrombogenic vitamin) is reported as 0.000925.
Cc1ccccc1-n1c(CF)nc2ccc(N)cc2c1=O gave a maximum recommended daily dose (mmol/kg-bw/day) [4] of 0.00353.
Work on CCOC(C)=O yielded a maximum recommended daily dose (mmol/kg-bw/day) (TherapeuticCategory: none) of 0.284.
Work on NC(=O)c1ccccc1O yielded a maximum recommended daily dose (mmol/kg-bw/day) (TherapeuticCategory: analgesic) of 0.316.
OC[C@H]1O[C@@H](n2cnc3c2NC=NC[C@H]3O)C[C@@H]1O was tested, and the maximum recommended daily dose (mmol/kg-bw/day) [5] was 0.000249.
CC(C)(Oc1ccc(C2CC2(Cl)Cl)cc1)C(=O)O (centres undefined) was tested, and the maximum recommended daily dose (mmol/kg-bw/day) (TherapeuticCategory: antihyperlipoproteinemic) was 0.00578.
Compound OCCOCCN1CCN(C(c2ccccc2)c2ccc(Cl)cc2)CC1 (centres undefined) has a maximum recommended daily dose (mmol/kg-bw/day) (TherapeuticCategory: anxiolytic, antihistaminic) of 0.0178.
CCCCCCCC/C=C\CCCCCCCC(=O)O gave a maximum recommended daily dose (mmol/kg-bw/day) (TherapeuticCategory: sclerosing agent) of 0.242.
In the case of CN(C)CCCN1c2ccccc2Sc2ccccc21, the maximum recommended daily dose (mmol/kg-bw/day) (TherapeuticCategory: antipsychotic) is reported as 0.0587.
With O=C(O)CCC(=O)c1ccc2c(c1)-c1cccc3cccc-2c13 the maximum recommended daily dose (mmol/kg-bw/day) (TherapeuticCategory: choleretic) was 0.0552.
Cc1c(OCC(F)(F)F)ccnc1CS(=O)c1nc2ccccc2[nH]1 (centres undefined) showed a maximum recommended daily dose (mmol/kg-bw/day) (TherapeuticCategory: antiulcerative, anti infective) of 0.00135.
Work on CC(C)(C)c1ccc(CN2CCN(C(c3ccccc3)c3ccc(Cl)cc3)CC2)cc1 (centres undefined) yielded a maximum recommended daily dose (mmol/kg-bw/day) [3] of 0.00577.
Compound O=C1O[C@H]([C@@H](O)CO)C(O)=C1O has a maximum recommended daily dose (mmol/kg-bw/day) (TherapeuticCategory: vitamin C deficiency) of 0.568.
With CC(C)c1ccc2oc3nc(N)c(C(=O)O)cc3c(=O)c2c1 the maximum recommended daily dose (mmol/kg-bw/day) (TherapeuticCategory: antiallergic, antiasthmatic) was 0.00838.
CC(=O)OCC(=O)[C@@]1(O)CC[C@H]2[C@@H]3C[C@H](C)C4=CC(=O)C=C[C@]4(C)[C@H]3[C@@H](O)C[C@@]21C gave a maximum recommended daily dose (mmol/kg-bw/day) [2] of 0.01.
Compound CCNC(C)Cc1cccc(C(F)(F)F)c1 (centres undefined) has a maximum recommended daily dose (mmol/kg-bw/day) (TherapeuticCategory: anorexic) of 0.00865.
Work on CC1CCN(CCCC(=O)c2ccc(F)cc2)CC1 yielded a maximum recommended daily dose (mmol/kg-bw/day) (TherapeuticCategory: neuroleptic) of 0.0253.
Compound CC(C)NCC(O)c1ccc(NS(C)(=O)=O)cc1 (centres undefined) has a maximum recommended daily dose (mmol/kg-bw/day) (TherapeuticCategory: antianginal, antiarrhythmic, antihypertensive) of 0.0196.
In the case of CC(=O)N(CC(O)CO)c1c(I)c(C(=O)NCC(O)CO)c(I)c(C(=O)NCC(O)CO)c1I (centres undefined), the maximum recommended daily dose (mmol/kg-bw/day) (TherapeuticCategory: diagnostic aid) is reported as 0.134.
Work on CN[C@@H]1[C@H](O[C@H]2[C@H](O[C@H]3[C@H](O)[C@@H](O)[C@H](N=C(N)N)[C@@H](O)[C@@H]3N=C(N)N)O[C@@H](C)[C@]2(O)CO)O[C@@H](CO)[C@H](O)[C@H]1O yielded a maximum recommended daily dose (mmol/kg-bw/day) [1] of 0.0286.
For CC(=O)Nc1ccc(/C=N/NC(N)=S)cc1, the maximum recommended daily dose (mmol/kg-bw/day) [1] was 0.0106.
Work on COc1cccc2c1C(=O)c1c(O)c3c(c(O)c1C2=O)C[C@@](O)(C(C)=O)C[C@@H]3O[C@H]1C[C@H](N)[C@H](O)[C@H](C)O1 yielded a maximum recommended daily dose (mmol/kg-bw/day) [5] of 0.00205.

Reference: PubChem BioAssay AID1195 (EPA DSSTox, 2008)
